In patent US20260356819A1, “OXOISOINDOLINYL-SUBSTITUTED […] DERIVATIVE AND USE THEREOF” (GLUETACS THERAPEUTICS (SHANGHAI) CO., LTD., priority 2023, published 2026):

Columns and labels:
Format in all cases: cell-based
Settings in all cases: compounds at 50 nM and 500 nM
WEE1 = biological target: T1, WEE1 (Homo sapiens, UniProt P30291+Q96SW2); experiment: Western blot degradation of WEE1 in hPBMCs (24 h)
T1 construct: The supernatant was aspirated as the extracted total cell protein; endogenous in cells; host or cells: human peripheral blood mononuclear cells (hPBMCs)
Procedure, shortened: (§1)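 Compounds were tested at 50 nM and 500 nM on hPBMCs (1×10^6 cells/mL) for 24 h, alongside DMSO. Proteins were detected by Western blot after denaturation at 95 °C; remaining protein computed from normalised band grayscale.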

IKZF1 = biological target: T2, IKZF1 (Homo sapiens, UniProt Q13422+Q96SW2); experiment: Western blot degradation of IKZF1 in hPBMCs (24 h)
T2 construct: The supernatant was aspirated as the extracted total cell protein; endogenous in cells; host or cells: human peripheral blood mononuclear cells (hPBMCs)
Procedure, shortened: as §1

IKZF2 = biological target: T3, IKZF2 (Homo sapiens, UniProt Q96SW2+Q9UKS7); experiment: Western blot degradation of IKZF2 in hPBMCs (24 h)
T3 construct: The supernatant was aspirated as the extracted total cell protein; endogenous in cells; host or cells: human peripheral blood mononuclear cells (hPBMCs)
Procedure, shortened: as §1

IKZF3 = biological target: T4, IKZF3 (Homo sapiens, UniProt Q96SW2+Q9UKT9); experiment: Western blot degradation of IKZF3 in hPBMCs (24 h)
T4 construct: The supernatant was aspirated as the extracted total cell protein; endogenous in cells; host or cells: human peripheral blood mononuclear cells (hPBMCs)
Procedure, shortened: as §1

CK1α = biological target: T5, CK1α (Homo sapiens, UniProt P48729+Q96SW2); experiment: Western blot degradation of CK1α in hPBMCs (24 h)
T5 construct: The supernatant was aspirated as the extracted total cell protein; endogenous in cells; host or cells: human peripheral blood mononuclear cells (hPBMCs)
Procedure, shortened: as §1

GSPT1 = biological target: T6, GSPT1 (Homo sapiens, UniProt P15170+Q96SW2); experiment: Western blot degradation of GSPT1 in hPBMCs (24 h)
T6 construct: The supernatant was aspirated as the extracted total cell protein; endogenous in cells; host or cells: human peripheral blood mononuclear cells (hPBMCs)
Procedure, shortened: as §1

T3 sequence (Q9UKS7 whole entry): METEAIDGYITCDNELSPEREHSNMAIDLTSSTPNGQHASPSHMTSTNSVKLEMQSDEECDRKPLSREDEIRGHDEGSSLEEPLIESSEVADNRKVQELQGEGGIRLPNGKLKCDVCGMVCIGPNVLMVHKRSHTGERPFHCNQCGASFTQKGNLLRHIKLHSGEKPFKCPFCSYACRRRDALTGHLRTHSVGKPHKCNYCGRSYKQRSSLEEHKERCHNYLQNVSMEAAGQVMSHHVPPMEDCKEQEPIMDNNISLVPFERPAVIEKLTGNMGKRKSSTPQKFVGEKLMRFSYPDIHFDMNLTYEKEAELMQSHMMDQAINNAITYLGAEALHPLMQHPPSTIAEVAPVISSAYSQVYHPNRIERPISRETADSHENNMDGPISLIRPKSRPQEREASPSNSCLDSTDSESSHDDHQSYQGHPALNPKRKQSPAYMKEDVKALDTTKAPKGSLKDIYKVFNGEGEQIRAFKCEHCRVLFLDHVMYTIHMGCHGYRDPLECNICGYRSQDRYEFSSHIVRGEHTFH
T3 sequence (Q96SW2 whole entry): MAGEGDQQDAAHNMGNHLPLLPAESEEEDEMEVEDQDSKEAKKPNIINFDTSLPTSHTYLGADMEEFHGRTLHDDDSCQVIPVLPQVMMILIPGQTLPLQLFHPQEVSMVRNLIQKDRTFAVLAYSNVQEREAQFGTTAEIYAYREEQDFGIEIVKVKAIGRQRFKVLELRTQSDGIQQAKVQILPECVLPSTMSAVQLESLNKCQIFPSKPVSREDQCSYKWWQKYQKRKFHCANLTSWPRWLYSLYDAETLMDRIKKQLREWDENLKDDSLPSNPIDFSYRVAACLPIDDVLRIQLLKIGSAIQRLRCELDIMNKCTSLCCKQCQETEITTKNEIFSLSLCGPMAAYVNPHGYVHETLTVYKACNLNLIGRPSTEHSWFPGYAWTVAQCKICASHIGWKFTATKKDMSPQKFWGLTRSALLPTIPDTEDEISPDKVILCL
T3 sequence (Q16531 whole entry partner): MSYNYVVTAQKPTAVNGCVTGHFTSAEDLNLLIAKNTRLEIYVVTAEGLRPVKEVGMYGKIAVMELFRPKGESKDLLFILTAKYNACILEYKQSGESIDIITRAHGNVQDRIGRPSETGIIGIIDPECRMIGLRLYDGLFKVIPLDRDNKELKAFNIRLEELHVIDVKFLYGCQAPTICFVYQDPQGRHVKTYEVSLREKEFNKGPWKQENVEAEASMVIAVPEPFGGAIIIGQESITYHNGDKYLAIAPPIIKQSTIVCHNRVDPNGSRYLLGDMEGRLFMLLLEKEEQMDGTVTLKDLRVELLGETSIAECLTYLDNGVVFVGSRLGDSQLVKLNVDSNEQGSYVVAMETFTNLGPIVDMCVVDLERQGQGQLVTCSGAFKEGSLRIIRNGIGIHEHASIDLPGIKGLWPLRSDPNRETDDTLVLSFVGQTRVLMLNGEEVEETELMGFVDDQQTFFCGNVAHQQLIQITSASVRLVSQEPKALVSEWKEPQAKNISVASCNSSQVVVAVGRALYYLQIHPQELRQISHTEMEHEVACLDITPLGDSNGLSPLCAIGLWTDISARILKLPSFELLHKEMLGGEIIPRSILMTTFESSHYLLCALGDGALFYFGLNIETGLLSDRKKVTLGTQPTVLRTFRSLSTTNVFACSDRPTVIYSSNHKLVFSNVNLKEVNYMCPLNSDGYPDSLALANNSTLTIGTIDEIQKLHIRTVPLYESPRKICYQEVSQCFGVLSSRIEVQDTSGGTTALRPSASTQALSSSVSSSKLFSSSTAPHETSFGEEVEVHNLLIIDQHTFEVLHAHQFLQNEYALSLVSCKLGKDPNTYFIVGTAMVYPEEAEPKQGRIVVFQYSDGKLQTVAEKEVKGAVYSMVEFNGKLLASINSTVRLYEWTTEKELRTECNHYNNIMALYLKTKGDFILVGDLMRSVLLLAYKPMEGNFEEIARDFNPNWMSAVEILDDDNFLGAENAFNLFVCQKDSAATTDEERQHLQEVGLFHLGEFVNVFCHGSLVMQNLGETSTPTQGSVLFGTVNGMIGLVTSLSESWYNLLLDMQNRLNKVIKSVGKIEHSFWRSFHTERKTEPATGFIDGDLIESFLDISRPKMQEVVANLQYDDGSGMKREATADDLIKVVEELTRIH
T4 sequence (Q9UKT9 whole entry): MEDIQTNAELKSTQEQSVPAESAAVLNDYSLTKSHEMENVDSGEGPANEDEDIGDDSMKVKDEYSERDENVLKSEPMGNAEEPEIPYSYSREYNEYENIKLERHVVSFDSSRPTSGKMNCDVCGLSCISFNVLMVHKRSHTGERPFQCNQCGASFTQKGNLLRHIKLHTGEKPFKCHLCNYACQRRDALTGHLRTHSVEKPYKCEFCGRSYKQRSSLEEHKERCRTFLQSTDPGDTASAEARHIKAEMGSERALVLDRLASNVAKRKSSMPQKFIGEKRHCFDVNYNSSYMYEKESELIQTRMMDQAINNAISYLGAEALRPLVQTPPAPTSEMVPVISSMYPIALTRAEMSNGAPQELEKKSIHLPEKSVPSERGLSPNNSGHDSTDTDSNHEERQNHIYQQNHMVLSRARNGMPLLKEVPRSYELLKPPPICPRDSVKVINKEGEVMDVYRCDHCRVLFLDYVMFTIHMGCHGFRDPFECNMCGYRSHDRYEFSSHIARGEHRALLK
T4 sequence (Q96SW2 whole entry): as the sequence (Q96SW2 whole entry) above
T4 sequence (Q16531 whole entry partner): as the sequence (Q16531 whole entry partner) above
T5 sequence (P48729 whole entry): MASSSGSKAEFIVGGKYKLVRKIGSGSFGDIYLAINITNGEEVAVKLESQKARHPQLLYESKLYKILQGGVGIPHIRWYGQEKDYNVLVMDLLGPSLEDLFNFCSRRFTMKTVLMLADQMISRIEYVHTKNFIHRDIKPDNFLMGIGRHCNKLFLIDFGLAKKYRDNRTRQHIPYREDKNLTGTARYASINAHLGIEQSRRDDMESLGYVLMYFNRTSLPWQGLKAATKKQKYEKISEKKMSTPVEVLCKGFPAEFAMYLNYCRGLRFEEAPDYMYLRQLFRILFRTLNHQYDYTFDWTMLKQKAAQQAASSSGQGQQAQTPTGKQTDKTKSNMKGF
T5 sequence (Q96SW2 whole entry): as the sequence (Q96SW2 whole entry) above
T5 sequence (Q16531 whole entry partner): as the sequence (Q16531 whole entry partner) above
T1 sequence (P30291 whole entry): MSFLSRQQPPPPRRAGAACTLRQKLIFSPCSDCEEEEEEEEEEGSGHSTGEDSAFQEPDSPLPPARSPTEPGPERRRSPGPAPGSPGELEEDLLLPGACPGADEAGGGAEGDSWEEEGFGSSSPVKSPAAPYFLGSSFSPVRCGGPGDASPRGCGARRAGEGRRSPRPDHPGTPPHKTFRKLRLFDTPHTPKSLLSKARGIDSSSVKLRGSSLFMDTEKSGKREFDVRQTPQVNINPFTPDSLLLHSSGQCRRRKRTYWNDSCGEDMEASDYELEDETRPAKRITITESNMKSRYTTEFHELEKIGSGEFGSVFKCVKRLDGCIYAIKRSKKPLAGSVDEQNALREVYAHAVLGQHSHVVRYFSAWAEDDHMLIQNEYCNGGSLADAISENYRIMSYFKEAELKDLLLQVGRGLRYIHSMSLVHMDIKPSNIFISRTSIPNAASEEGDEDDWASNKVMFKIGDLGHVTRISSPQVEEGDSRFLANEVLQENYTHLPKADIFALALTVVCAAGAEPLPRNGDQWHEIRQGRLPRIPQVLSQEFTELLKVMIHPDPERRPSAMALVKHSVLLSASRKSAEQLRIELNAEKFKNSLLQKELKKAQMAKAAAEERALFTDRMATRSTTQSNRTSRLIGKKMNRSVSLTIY
T1 sequence (Q96SW2 whole entry): as the sequence (Q96SW2 whole entry) above
T1 sequence (Q16531 whole entry partner): as the sequence (Q16531 whole entry partner) above
T2 sequence (Q13422 whole entry): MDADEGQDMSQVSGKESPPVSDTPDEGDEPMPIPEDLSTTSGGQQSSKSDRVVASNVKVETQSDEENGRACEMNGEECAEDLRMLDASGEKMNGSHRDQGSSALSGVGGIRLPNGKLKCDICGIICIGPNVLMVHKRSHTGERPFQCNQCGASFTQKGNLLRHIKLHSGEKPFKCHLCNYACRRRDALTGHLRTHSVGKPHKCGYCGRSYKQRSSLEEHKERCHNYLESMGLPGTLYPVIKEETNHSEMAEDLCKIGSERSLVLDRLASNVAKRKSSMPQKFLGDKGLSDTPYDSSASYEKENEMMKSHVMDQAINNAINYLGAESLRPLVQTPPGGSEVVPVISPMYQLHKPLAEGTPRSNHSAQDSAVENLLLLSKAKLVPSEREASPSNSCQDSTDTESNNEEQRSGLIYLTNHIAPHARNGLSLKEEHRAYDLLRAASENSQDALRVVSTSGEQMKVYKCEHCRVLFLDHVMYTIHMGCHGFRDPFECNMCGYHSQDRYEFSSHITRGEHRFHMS
T2 sequence (Q96SW2 whole entry): as the sequence (Q96SW2 whole entry) above
T2 sequence (Q16531 whole entry partner): as the sequence (Q16531 whole entry partner) above

| SMILES | WEE1 substrate protein remaining % (WEE1) | IKZF1 substrate protein remaining % (IKZF1) | IKZF2 substrate protein remaining % (IKZF2) | IKZF3 substrate protein remaining % (IKZF3) | CK1α substrate protein remaining % (CK1α) | GSPT1 substrate protein remaining % (GSPT1) |
| --- | --- | --- | --- | --- | --- | --- |
| O=C1CCN(N2C(=O)c3ccc(CN4CCN(c5cnnc(Cl)c5Cl)CC4)cc3C2=O)C(=O)N1 [GT-07035, 5-((4-(5,6-dichloropyridazin-4-yl)piperazin-1-yl)methyl)-2-(2,4-dioxotetrahydropyrimidin-1(2H)-yl)isoindoline-1,3-dione] | B (80%< substrate protein remaining % ≤100%) | B (80%< substrate protein remaining % ≤100%) | B (80%< substrate protein remaining % ≤100%) | A (0% ≤ substrate protein remaining % ≤80%) | A (0% ≤ substrate protein remaining % ≤80%) | A (0% ≤ substrate protein remaining % ≤80%) |
| O=C1CCN(N2C(=O)c3ccc(CN4CCN(c5cc(Cl)nnc5Cl)CC4)cc3C2=O)C(=O)N1 [GT-07036, 5-((4-(3,6-dichloropyridazin-4-yl)piperazin-1-yl)methyl)-2-(2,4-dioxotetrahydropyrimidin-1(2H)-yl)isoindoline-1,3-dione] | B (80%< substrate protein remaining % ≤100%) | B (80%< substrate protein remaining % ≤100%) | B (80%< substrate protein remaining % ≤100%) | B (80%< substrate protein remaining % ≤100%) | B (80%< substrate protein remaining % ≤100%) | A (0% ≤ substrate protein remaining % ≤80%) |
| O=C1CCN(N2C(=O)c3ccc(CN4CCN(c5ncncn5)CC4)cc3C2=O)C(=O)N1 [GT-07037, 5-((4-(1,3,5-triazin-2-yl)piperazin-1-yl)methyl)-2-(2,4-dioxotetrahydropyrimidin-1(2H)-yl)isoindoline-1,3-dione] | B (80%< substrate protein remaining % ≤100%) | B (80%< substrate protein remaining % ≤100%) | B (80%< substrate protein remaining % ≤100%) | B (80%< substrate protein remaining % ≤100%) | B (80%< substrate protein remaining % ≤100%) | A (0% ≤ substrate protein remaining % ≤80%) |
| O=C1CCN(N2C(=O)c3ccc(CN4CCN(c5c(Cl)cncc5Cl)CC4)cc3C2=O)C(=O)N1 [GT-07038, 5-((4-(3,5-dichloropyridin-4-yl)piperazin-1-yl)methyl)-2-(2,4-dioxotetrahydropyrimidin-1(2H)-yl)isoindoline-1,3-dione] | A (0% ≤ substrate protein remaining % ≤80%) | A (0% ≤ substrate protein remaining % ≤80%) | A (0% ≤ substrate protein remaining % ≤80%) | A (0% ≤ substrate protein remaining % ≤80%) | A (0% ≤ substrate protein remaining % ≤80%) | A (0% ≤ substrate protein remaining % ≤80%) |
| O=C1CCN(N2Cc3cc(CN4CCN(c5ccnc(Cl)c5F)CC4)ccc3C2=O)C(=O)N1 [GT-07069, 1-(5-((4-(2-chloro-3-fluoropyridin-4-yl)piperazin-1-yl)methyl)-1-oxoisoindolin-2-yl)dihydropyrimidine-2,4(1H,3H)-dione] | A (0% ≤ substrate protein remaining % ≤80%) | B (80%< substrate protein remaining % ≤100%) | B (80%< substrate protein remaining % ≤100%) | B (80%< substrate protein remaining % ≤100%) | B (80%< substrate protein remaining % ≤100%) | B (80%< substrate protein remaining % ≤100%) |
| O=C1CCN(N2C(=O)c3ccc(CN4CCN(c5ccncc5)CC4)cc3C2=O)C(=O)N1 [GT-07073, 2-(2,4-dioxotetrahydropyrimidin-1(2H)-yl)-5-((4-(pyridin-4-yl)piperazin-1-yl)methyl)isoindoline-1,3-dione] | A (0% ≤ substrate protein remaining % ≤80%) | B (80%< substrate protein remaining % ≤100%) | B (80%< substrate protein remaining % ≤100%) | B (80%< substrate protein remaining % ≤100%) | B (80%< substrate protein remaining % ≤100%) | B (80%< substrate protein remaining % ≤100%) |
| O=C1CCN(N2Cc3cc(CN4CCN(c5cnccn5)CC4)ccc3C2=O)C(=O)N1 [GT-07160, 1-(1-oxo-5-((4-(pyrazin-2-yl)piperazin-1-yl)methyl)isoindolin-2-yl)dihydropyrimidine-2,4(1H,3H)-dione] | B (80%< substrate protein remaining % ≤100%) | B (80%< substrate protein remaining % ≤100%) | A (0% ≤ substrate protein remaining % ≤80%) | B (80%< substrate protein remaining % ≤100%) | A (0% ≤ substrate protein remaining % ≤80%) | A (0% ≤ substrate protein remaining % ≤80%) |
| Cc1cc(N2CCN(Cc3ccc4c(c3)C(=O)N(N3CCC(=O)NC3=O)C4=O)CC2)ccn1 [GT-07161, 2-(2,4-dioxotetrahydropyrimidin-1(2H)-yl)-5-((4-(2-methylpyridin-4-yl)piperazin-1-yl)methyl)isoindoline-1,3-dione] | B (80%< substrate protein remaining % ≤100%) | B (80%< substrate protein remaining % ≤100%) | A (0% ≤ substrate protein remaining % ≤80%) | B (80%< substrate protein remaining % ≤100%) | B (80%< substrate protein remaining % ≤100%) | A (0% ≤ substrate protein remaining % ≤80%) |
| O=C1CCN(N2C(=O)c3ccc(CN4CCN(c5nccc(F)c5F)CC4)cc3C2=O)C(=O)N1 [GT-07162, 5-((4-(3,4-difluoropyridin-2-yl)piperazin-1-yl)methyl)-2-(2,4-dioxotetrahydropyrimidin-1(2H)-yl)isoindoline-1,3-dione] | B (80%< substrate protein remaining % ≤100%) | B (80%< substrate protein remaining % ≤100%) | A (0% ≤ substrate protein remaining % ≤80%) | B (80%< substrate protein remaining % ≤100%) | A (0% ≤ substrate protein remaining % ≤80%) | A (0% ≤ substrate protein remaining % ≤80%) |
| O=C1CCN(N2C(=O)c3ccc(CN4CCN(c5ccncc5Br)CC4)cc3C2=O)C(=O)N1 [GT-07163, 5-((4-(3-bromopyridin-4-yl)piperazin-1-yl)methyl)-2-(2,4-dioxotetrahydropyrimidin-1(2H)-yl)isoindoline-1,3-dione] | B (80%< substrate protein remaining % ≤100%) | B (80%< substrate protein remaining % ≤100%) | A (0% ≤ substrate protein remaining % ≤80%) | B (80%< substrate protein remaining % ≤100%) | B (80%< substrate protein remaining % ≤100%) | A (0% ≤ substrate protein remaining % ≤80%) |
| O=C1CCN(N2C(=O)c3ccc(CN4CCN(c5ccncc5F)CC4)cc3C2=O)C(=O)N1 [GT-07164, 2-(2,4-dioxotetrahydropyrimidin-1(2H)-yl)-5-((4-(3-fluoropyridin-4-yl)piperazin-1-yl)methyl)isoindoline-1,3-dione] | B (80%< substrate protein remaining % ≤100%) | B (80%< substrate protein remaining % ≤100%) | A (0% ≤ substrate protein remaining % ≤80%) | B (80%< substrate protein remaining % ≤100%) | B (80%< substrate protein remaining % ≤100%) | A (0% ≤ substrate protein remaining % ≤80%) |
| O=C1CCN(N2C(=O)c3ccc(CN4CCN(c5ccncc5Cl)CC4)cc3C2=O)C(=O)N1 [GT-07165, 5-((4-(3-chloropyridin-4-yl)piperazin-1-yl)methyl)-2-(2,4-dioxotetrahydropyrimidin-1(2H)-yl)isoindoline-1,3-dione] | B (80%< substrate protein remaining % ≤100%) | B (80%< substrate protein remaining % ≤100%) | A (0% ≤ substrate protein remaining % ≤80%) | B (80%< substrate protein remaining % ≤100%) | B (80%< substrate protein remaining % ≤100%) | A (0% ≤ substrate protein remaining % ≤80%) |
| O=C1CCN(N2C(=O)c3ccc(CN4CCN(c5ccnc(Cl)c5F)CC4)cc3C2=O)C(=O)N1 [GT-07166, 5-((4-(2-chloro-3-fluoropyridin-4-yl)piperazin-1-yl)methyl)-2-(2,4-dioxotetrahydropyrimidin-1(2H)-yl)isoindoline-1,3-dione] | B (80%< substrate protein remaining % ≤100%) | B (80%< substrate protein remaining % ≤100%) | A (0% ≤ substrate protein remaining % ≤80%) | B (80%< substrate protein remaining % ≤100%) | B (80%< substrate protein remaining % ≤100%) | A (0% ≤ substrate protein remaining % ≤80%) |
